Laboratory results as given in US12459954B2, “Crystalline form a of GLP-1 receptor agonist and preparation method therefor” (Hangzhou Zhongmei Huadong Pharmaceutical Co., Ltd., priority 2020, dated 2025).
Structures can show the parent of a compound that is named as a salt.

Tests used:
Type in all cases: physicochemical
[1] = Study of stability: chemical stability expressed in the HPLC purity
Description: (§1) The crystal form A of OAD2 was subject to a stability study. The crystal form A was tested stability in H2O, SGF (simulated gastric fluid), FeSSIF (simulated intestinal fluid in the feeding state) and FaSSIF (simulated intestinal fluid in the fasting state). The chemical stability was expressed in the HPLC purity. The crystal form stability was expressed by detecting the change of crystal form by XPRD.

[2] = Hygroscopic weight increment on placement (water absorption); conditions: for weight increase from absorption of water: after 5 days under certain (experimental) / similar conditions
[3] = Study of stability: chemical stability expressed in the HPLC purity; conditions: dihydrochloride
[4] = Study of stability: crystal form stability by detecting the change of crystal form by XRPD
Description: X-ray powder dfraction (XRPD): Empyren; test conditions: power 40 kV×250 mA, CuKα radiation; scanning range 3˜40° (2θ); step width 0.02°; scanning speed 5/min; scanning method: continuous scanning.
as §1

[5] = Placed at room temperature and room humidity, 28 d
[6] = Room temperature and room humidity ± 25° C./60% RH, 28 d + 7 d

CC[C@@H](c1ccccc1)N1Cc2cc3c(cc2C[C@H]1C(=O)N[C@@H](Cc1ccc(-c2ccnc(C)c2C)cc1)C(=O)O)OC[C@H](c1ccc(OCc2ccc(Cl)c(Cl)c2)cc1)O3 [OAD2 dihydrochloride, (S)-2-(3S,8S)-3-(4-(3,4-dichlorobenzyloxy)phenyl-7-((S)-1-phenylpropyl)-2,3,6,7,8,9-hexahydro-[1,4]-dioxino[2,3-g]isoquinolin-8-ylformylamino)-3-(4-(2,3-dimethylpyridin-4-yl)phenyl)propionic acid dihydrochloride, reference compound]
HPLC purity (area %) ([1]; 25°C/75+5% RH, 5 d): 99.07 area % | weight increase from absorption of water ([2]; dihydrochloride): 8.3% | weight increase from absorption of water ([2]; listed as OAD2 dihydrochloride salt, dihydrochloride): 8.3% | moisture absorption (in words) ([2]; listed as dihydrochloride salt of OAD2, dihydrochloride): absorbs moisture | HPLC purity (area %) ([3]; High temperature 60° C., 5 d): 98.70 area % | HPLC purity (area %) ([3]; Initial, 0 d): 99.03 area %

CC[C@@H](c1ccccc1)N1Cc2cc3c(cc2C[C@H]1C(=O)N[C@@H](Cc1ccc(-c2ccnc(C)c2C)cc1)C(=O)O)OC[C@H](c1ccc(OCc2ccc(Cl)c(Cl)c2)cc1)O3 [Crystal form A, (S)-2-(3S,8S)-3-(4-(3,4-dichlorobenzyloxy)phenyl-7-((S)-1-phenylpropyl)-2,3,6,7,8,9-hexahydro-[1,4]-dioxino[2,3-g]isoquinolin-8-ylformylamino)-3-(4-(2,3-dimethylpyridin-4-yl)phenyl)propionic acid]
HPLC purity (area %) ([1]; 25° C./75 ± 5% RH, 7 d): 98.90 area % | HPLC purity (area %) ([1]; High temperature 60° C., 5 d, listed as Crystal form A (2#)): 98.12 area % | HPLC purity (area %) ([1]; Initial, 0 d, listed as Crystal form A (1#)): 98.88 area % | HPLC purity (area %) ([1]; Initial, 0 d, listed as Crystal form A (2#)): 98.13 area % | HPLC purity (area %) [1, 5]: 98.69 area % | HPLC purity (area %) [1, 6]: 98.67 area % | chemical stability (overall finding) ([1]; overall result of Table 3): good chemical stability | Change of crystal form ([4]; 25° C./75 ± 5% RH, 7 d): no | Change of crystal form ([4]; High temperature 60° C., 5 d): no | Change of crystal form ([4]; Initial, 0 d): no | Change of crystal form [4, 5]: no | Change of crystal form [4, 6]: no | Change of crystal form ([4]; Successively suspended in SGF/FeSSIF/FaSSIF/water, 1 d): no | change of crystal form (overall finding) ([4]; under various conditions): did not change the crystal form | weight increase from absorption of water ([2]; listed as OAD2 crystalline Form A): did not gain weight | weight increase from absorption of water ([2]; listed as crystal form A of OAD2): no measurable amount weight increase | moisture absorption (in words) ([2]; listed as crystal form A of the free base): not easy to absorb moisture
